Molecular target: T1, KCNQ2/3 channels (Homo sapiens, UniProt O43525+O43526)
T1 construct: expressed in transfected cells
Experiment: Fluorescence assay using a voltage sensitive dye (fluorimetry)
Assay type: cell-based
Details: CHO-K1 cells expressing KCNQ2/3 channels; for EC50: agonistic activity; for Emax / Fluorimetry % efficacy (retigabine 50 μM = 100%): retigabine 50 μM = 100%; for Emax: read-out: Fluorimetry % efficacy (retigabine 50 μM = 100%)
Method in brief: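 Agonist EC50s come from the F2 vs F1 fluorescence comparison, F2 taken at the peak after KCl depolarisation (92 mM final) and F1 after 30 min compound exposure at room temperature. Assay uses KCNQ2/3-expressing CHO-K1 cells stained 45 min with a red voltage-sensitive dye in pH 7.4 ES buffer.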

| SMILES | EC50 [nM] | Emax [%] | Fluorimetry % efficacy (retigabine 50 μM = 100%) [%] |
| --- | --- | --- | --- |
| O=C(NCCC(F)(F)F)c1cccnc1SCCCc1ccc(F)cc1 [compound 48, 2-[3-(4-Fluorophenyl)-propylsulfanyl]-N-(3,3,3-trifluoro-propyl)-pyridine-3-carboxylic acid amide] | 148 | 183 |  |
| O=C(NCc1cncs1)c1cccnc1SCCCc1ccc(F)cc1 [compound 145, 2-[3-(4-Fluorophenyl)-propylsulfanyl]-N-(thiazol-5-yl-methyl)-pyridine-3-carboxylic acid amide] | 1490 | 174 |  |
| O=C(NCCCc1ccccn1)c1cccnc1SCCCc1ccc(F)cc1 [compound 93, 2-[3-(4-Fluorophenyl)-propylsulfanyl]-N-(3-pyridine-2-yl-propyl)-pyridine-3-carboxylic acid amide] | 2810 | 154 |  |
| O=C(NCc1cccc(-c2ccncc2)c1)c1cccnc1SCCCc1ccc(F)cc1 [compound 159, 2-[3-(4-Fluorophenyl)-propylsulfanyl]-N-[(3-pyridin-4-yl-phenyl)-methyl]-pyridine-3-carboxylic acid amide] | 670 | 113 |  |
| O=C(NCC1CCCCCC1)c1cccnc1CCCCc1cccc(C(F)(F)F)c1 [compound 25, N-(Cycloheptyl-methyl)-2-[4-[3-(trifluoromethyl)phenyl]-butyl]-pyridine-3-carboxylic acid amide] | 1020 | 216 |  |
| CN1CCOc2ccc(CNC(=O)c3cccnc3SCCCc3ccc(F)cc3)cc21 [compound 162, 2-[3-(4-Fluorophenyl)-propylsulfanyl]-N-[(4-methyl-3,4-dihydro-2H-[1,4]benzoxazin-6-yl)-methyl]-pyridine-3-carboxylic acid amide] | 166 | 83 |  |
| CC(C)CCNC(=O)c1cccnc1SCCC(F)(F)c1ccc(F)c(F)c1 [compound 209, 2-[[3-(3,4-Difluoro-phenyl)-3,3-difluoro-propyl]sulfanyl]-N-(3-methyl-butyl)-pyridine-3-carboxylic acid amide] | 9 | 228 |  |
| O=C(NCc1ccc2c(c1)OCC2)c1cccnc1SCCCc1ccc(F)cc1 [compound 139, N-(2,3-Dihydro-benzofuran-6-yl-methyl)-2-[3-(4-fluorophenyl)-propylsulfanyl]-pyridine-3-carboxylic acid amide] | 101 | 81 |  |
| COCCNC(=O)c1cccnc1SCCC(F)(F)c1ccc(F)cc1 [compound 171, 2-[[3,3-Difluoro-3-(4-fluorophenyl)-propyl]sulfanyl]-N-(2-methoxy-ethyl)-pyridine-3-carboxylic acid amide] | 432 | 181 |  |
| CC(C)(C)CCNC(=O)c1cccnc1SCC(=O)Cc1ccccc1 [compound 167] | 2710 |  | 77 |
| O=C(NCc1cccs1)c1ccc(N2CCCC2)nc1SCCCc1ccccc1 [compound 112] | 494 |  | 104 |
| COc1cccc(CNC(=O)c2cccnc2SCCCc2ccc(F)cc2)c1 [compound 77, 2-[3-(4-Fluorophenyl)-propylsulfanyl]-N-[(3-methoxyphenyl)-methyl]-pyridine-3-carboxylic acid amide] | 233 | 118 |  |
| CC(C)CCNC(=O)c1cccnc1SC(C)CCc1cccc(F)c1 (stereo not drawn) [compound 202, 2-[[3-(3-Fluorophenyl)-1-methyl-propyl]sulfanyl]-N-(3-methyl-butyl)-pyridine-3-carboxylic acid amide] | 71 | 235 |  |
| O=C(NCC12CCC(CC1)C2)c1cccnc1SCCC(F)(F)c1ccc(F)cc1 [compound 205, N-(1-Bicyclo[2.2.1]heptanyl-methyl)-2-[[3,3-difluoro-3-(4-fluorophenyl)-propyl]sulfanyl]-pyridine-3-carboxylic acid amide] | 28 | 294 |  |
| O=C(CCSc1ncccc1C(=O)NCC1CC2CCC1C2)c1ccccc1 (stereo not drawn) [compound 44, N-(5-Bicyclo[2.2.1]heptanyl-methyl)-2-[(3-oxo-3-phenyl-propyl)sulfanyl]-pyridine-3-carboxylic acid amide] | 2960 | 167 |  |
| O=C(NCc1ccc(F)cc1O)c1cccnc1SCCCc1ccc(F)cc1 [compound 173, N-[(4-Fluoro-2-hydroxy-phenyl)-methyl]-2-[3-(4-fluorophenyl)-propylsulfanyl]-pyridine-3-carboxylic acid amide] | 156 | 185 |  |
| COC(C)CNC(=O)c1cccnc1SCCC(F)(F)c1ccc(F)cc1 (stereo not drawn) [compound 194, 2-[[3,3-Difluoro-3-(4-fluorophenyl)-propyl]sulfanyl]-N-(2-methoxy-propyl)-pyridine-3-carboxylic acid amide] | 232 | 203 |  |
| O=C(NCc1cccc(-c2cccnc2)c1)c1cccnc1SCCCc1ccc(F)cc1 [compound 152, 2-[3-(4-Fluorophenyl)-propylsulfanyl]-N-[(3-pyridin-3-yl-phenyl)-methyl]-pyridine-3-carboxylic acid amide] | 1290 | 89 |  |

| SMILES | EC50 [nM] | Emax [%] | Fluorimetry % efficacy (retigabine 50 μM = 100%) [%] |
| --- | --- | --- | --- |
| CC(CSc1ncccc1C(=O)NCc1cccs1)Sc1ccccc1 (stereo not drawn) [compound 16] | 74 | 176 |  |
| CC(CSc1ncccc1C(=O)NCc1cccs1)Sc1cccc(C(F)(F)F)c1 (stereo not drawn) [compound 20, N-(Thiophen-2-yl-methyl)-2-[2-[[3-(trifluoromethyl)phenyl]sulfanyl]-propylsulfanyl]-pyridine-3-carboxylic acid amide] | 49 | 174 |  |
| O=C(NCc1ccc(F)cc1)c1cccnc1SCCCc1cccc(C(F)(F)F)c1 [compound 207, N-[(4-Fluorophenyl)-methyl]-2-[3-[3-(trifluoromethyl)phenyl]-propylsulfanyl]-pyridine-3-carboxylic acid amide] | 34 | 119 |  |
| CC(CCSc1ncccc1C(=O)NCC1CC2CCC1C2)c1ccc(F)cc1 (stereo not drawn) [compound 91, N-(5-Bicyclo[2.2.1]heptanyl-methyl)-2-[3-(4-fluorophenyl)-butylsulfanyl]-pyridine-3-carboxylic acid amide] | 184 | 241 |  |
| O=C(NCCc1ccccn1)c1cccnc1SCCCc1ccc(F)cc1 [compound 82, 2-[3-(4-Fluorophenyl)-propylsulfanyl]-N-(2-pyridine-2-yl-ethyl)-pyridine-3-carboxylic acid amide] | 6460 | 96 |  |
| O=C(NCC1CCCCC1)c1cccnc1CCCCc1ccccc1 [compound 9, N-(Cyclohexyl-methyl)-2-(4-phenyl-butyl)-pyridine-3-carboxylic acid amide] | 1350 | 157 |  |
| COc1ccccc1CNC(=O)c1cccnc1SCCCc1ccc(F)cc1 [compound 76, 2-[3-(4-Fluorophenyl)-propylsulfanyl]-N-[(2-methoxyphenyl)-methyl]-pyridine-3-carboxylic acid amide] |  | 33 |  |
| Cc1cc(CCCSc2ncccc2C(=O)NCc2cccs2)cc(C(F)(F)F)c1 [compound 109, 2-[3-[3-Methyl-5-(trifluoromethyl)-phenyl]-propylsulfanyl]-N-(thiophen-2-yl-methyl)-pyridine-3-carboxylic acid amide] | 180 | 129 |  |
| O=C(NCc1ccc2c(c1)N(CC1CC1)CCO2)c1cccnc1SCCCc1ccc(F)cc1 [compound 160, N-[[4-(Cyclopropyl-methyl)-3,4-dihydro-2H-[1,4]benzoxazin-6-yl]-methyl]-2-[3-(4-fluorophenyl)-propylsulfanyl]-pyridine-3-carboxylic acid amide] | 228 | 74 |  |
| O=C(NCC1CC2CCC1C2)c1cccnc1SCCCc1ccc(O)cc1 (stereo not drawn) [compound 58] | 3880 |  | 174 |
| CC(CSc1ccccc1)Sc1ncccc1C(=O)NCc1cccs1 (stereo not drawn) [compound 24, 2-[(1-Methyl-2-phenylsulfanyl-ethyl)sulfanyl]-N-(thiophen-2-yl-methyl)-pyridine-3-carboxylic acid amide] | 11 | 122 |  |
| CC(C)CCNC(=O)c1cccnc1SC(C)CCc1ccc(F)c(F)c1 (stereo not drawn) [compound 200, 2-[[3-(3,4-Difluoro-phenyl)-1-methyl-propyl]sulfanyl]-N-(3-methyl-butyl)-pyridine-3-carboxylic acid amide] | 40 | 230 |  |
| O=C(NCc1cccc(O)c1)c1cccnc1SCCCc1ccc(F)cc1 [compound 84, 2-[3-(4-Fluorophenyl)-propylsulfanyl]-N-[(3-hydroxyphenyl)-methyl]-pyridine-3-carboxylic acid amide] | 3510 | 55 |  |
| CC(C)(C)CCNC(=O)c1cccnc1SCCC(F)(F)c1cccc(C(F)(F)F)c1 [compound 166, 2-[[3,3-Difluoro-3-[3-(trifluoromethyl)phenyl]-propyl]sulfanyl]-N-(3,3-dimethyl-butyl)-pyridine-3-carboxylic acid amide] | 46 | 206 |  |
| O=C(NCc1cccs1)c1cccnc1SCCCc1ccc(F)cc1 [compound 17] | 128 |  | 176 |
| O=C(NCc1cccs1)c1cccnc1SCCCc1cccs1 [compound 104, N-(Thiophen-2-yl-methyl)-2-(3-thiophen-2-yl-propylsulfanyl)-pyridine-3-carboxylic acid amide] | 361 | 87 |  |
| O=C(NCC1C2CCC1CC2)c1cccnc1SCCC(F)(F)c1ccc(F)c(F)c1 (stereo not drawn) [compound 210, N-(7-Bicyclo[2.2.1]heptanyl-methyl)-2-[[3-(3,4-difluoro-phenyl)-3,3-difluoro-propyl]sulfanyl]-pyridine-3-carboxylic acid amide] | 14 | 276 |  |

From US8586755B2, “Substituted nicotinamides as KCNQ2/3 modulators” (Grünenthal GmbH, priority 2009, dated 2013)
